Reference: ChEMBL document CHEMBL1201862, “PubChem BioAssay data set” (2004)
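Assay format: 96-well plates, 48-hour exposure. GI50 marks 50% less growth.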 Calls of active or inactive are those of the source. Rule as the data show it: active = GI50 up to about 1.1 µM and inactive = higher.

Key:
Experiment in all cases: NCI anticancer screen, dose series, 48 h
786-0 = tested on: 786-0
A498 = tested on: A498
A549 = tested on: A549
ACHN = tested on: ACHN
BT-549 = tested on: BT-549
CAKI-1 = tested on: CAKI-1
CCRF-CEM = tested on: CCRF-CEM
COLO 205 = tested on: COLO 205
DU-145 = tested on: DU-145
EKVX = tested on: EKVX
HCC 2998 = tested on: HCC 2998
HCT-116 = tested on: HCT-116
HCT-15 = tested on: HCT-15
HL-60 = tested on: HL-60
HOP-62 = tested on: HOP-62
HOP-92 = tested on: HOP-92
HT-29 = tested on: HT-29
Hs-578T = tested on: Hs-578T
IGROV-1 = tested on: IGROV-1
K562 = tested on: K562
KM12 = tested on: KM12
LOX IMVI = tested on: LOX IMVI
M14 = tested on: M14
MCF7 = tested on: MCF7
MDA-MB-231 = tested on: MDA-MB-231
MDA-MB-435 = tested on: MDA-MB-435
MDA-N = tested on: MDA-N
MOLT-4 = tested on: MOLT-4
Malme-3M = tested on: Malme-3M
NCI-H226 = tested on: NCI-H226
NCI-H23 = tested on: NCI-H23
NCI-H460 = tested on: NCI-H460
NCI-H522 = tested on: NCI-H522
NCI/ADR-RES = tested on: NCI/ADR-RES
OVCAR-3 = tested on: OVCAR-3
OVCAR-4 = tested on: OVCAR-4
OVCAR-5 = tested on: OVCAR-5
OVCAR-8 = tested on: OVCAR-8
PC-3 = tested on: PC-3
RPMI-8226 = tested on: RPMI-8226
RXF 393 = tested on: RXF 393
SF-268 = tested on: SF-268
SF-295 = tested on: SF-295
SF-539 = tested on: SF-539
SK-MEL-28 = tested on: SK-MEL-28
SK-MEL-2 = tested on: SK-MEL-2
SK-MEL-5 = tested on: SK-MEL-5
SN12C = tested on: SN12C
SNB-19 = tested on: SNB-19
SNB-75 = tested on: SNB-75
SR = tested on: SR
SW-620 = tested on: SW-620
T47D = tested on: T47D
TK-10 = tested on: TK-10
U-251 = tested on: U-251
UACC-257 = tested on: UACC-257
UACC-62 = tested on: UACC-62
UO-31 = tested on: UO-31
SK-OV-3 = tested on: SK-OV-3

For `CCCCCCCCCC[C@H](O)[C@H]1CC[C@@H]([C@@H](O)CC[C@H](O)[C@@H]2CCC(CCCCCCC[C@@H](O)CC3=C[C@H](C)OC3=O)O2)O1` (stereo partly specified), the GI50 (786-0) was 1.79 µM (inactive), the GI50 (A498) was 3.16 µM (inactive) and the GI50 (A549) was 1.77 µM (inactive). For the same compound, the GI50 (ACHN) was 1.21 µM (inactive), the GI50 (BT-549) was 5.08 µM (inactive) and the GI50 (CAKI-1) was 3.22 µM (inactive). For the same compound, the GI50 (CCRF-CEM) was 1.11 µM (active), the GI50 (COLO 205) was 2.37 µM (inactive) and the GI50 (DU-145) was 3.6 µM (inactive). For the same compound, the GI50 (EKVX) was 1.89 µM (inactive), the GI50 (HCC 2998) was 4.33 µM (inactive) and the GI50 (HCT-116) was 1.16 µM (inactive). The GI50 (HCT-15) was 3.64 µM, the GI50 (HL-60) was 1.44 µM (inactive) and the GI50 (HOP-62) was 1.65 µM (inactive). For the same compound, the GI50 (HOP-92) was 1.02 µM (active), the GI50 (HT-29) was 1.73 µM (inactive) and the GI50 (Hs-578T) was 1.81 µM (inactive). For the same compound, the GI50 (IGROV-1) was 1.78 µM (inactive), the GI50 (K562) was 1.37 µM (inactive) and the GI50 (KM12) was 1.53 µM (inactive). For the same compound, the GI50 (LOX IMVI) was 0.212 µM (active), the GI50 (M14) was 1.5 µM (inactive) and the GI50 (MCF7) was 1.49 µM (inactive). The GI50 (MDA-MB-231) was 2.62 µM (inactive), the GI50 (MDA-MB-435) was 1.33 µM (inactive) and the GI50 (MDA-N) was 2.43 µM (inactive). The GI50 (MOLT-4) was 2.92 µM (inactive), the GI50 (Malme-3M) was 3.4 µM (inactive) and the GI50 (NCI-H226) was 1.57 µM (inactive). The GI50 (NCI-H23) was 1.31 µM (inactive), the GI50 (NCI-H460) was 1.86 µM (inactive) and the GI50 (NCI-H522) was 3.7 µM (inactive). For the same compound, the GI50 (NCI/ADR-RES) was 1.34 µM (inactive), the GI50 (OVCAR-3) was 1.35 µM (inactive) and the GI50 (OVCAR-4) was 4.4 µM (inactive). For the same compound, the GI50 (OVCAR-5) was 3.49 µM (inactive), the GI50 (OVCAR-8) was 1.95 µM (inactive) and the GI50 (PC-3) was 1.57 µM (inactive). For the same compound, the GI50 (RPMI-8226) was 2.52 µM (inactive), the GI50 (RXF 393) was 2.66 µM (inactive) and the GI50 (SF-268) was 1.85 µM (inactive). For the same compound, the GI50 (SF-295) was 1.73 µM (inactive), the GI50 (SF-539) was 1.79 µM (inactive) and the GI50 (SK-MEL-28) was 1.93 µM (inactive). For the same compound, the GI50 (SK-MEL-2) was 1.39 µM (inactive), the GI50 (SK-MEL-5) was 1.5 µM (inactive) and the GI50 (SN12C) was 2.94 µM (inactive). The GI50 (SNB-19) was 1.61 µM (inactive), the GI50 (SNB-75) was 2.47 µM (inactive) and the GI50 (SR) was 2.05 µM (inactive). For the same compound, the GI50 (SW-620) was 1.69 µM (inactive), the GI50 (T47D) was 3.08 µM (inactive) and the GI50 (TK-10) was 1.59 µM (inactive). For the same compound, the GI50 (U-251) was 1.97 µM (inactive), the GI50 (UACC-257) was 0.115 µM (active) and the GI50 (UACC-62) was 1.02 µM (active). The GI50 (UO-31) was 0.00416 µM (active).

With `CCCn1c2c(c3ccccc3c1=O)C(=O)c1ccccc1-2` the GI50 (786-0) was 16.4 µM (inactive), the GI50 (A498) was > 48.4 µM (inactive) and the GI50 (A549) was 36.4 µM (inactive). The GI50 (ACHN) was 53.6 µM (inactive), the GI50 (BT-549) was > 100 µM (inactive) and the GI50 (CAKI-1) was 48.3 µM (inactive). For the same compound, the GI50 (CCRF-CEM) was > 56.2 µM (inactive), the GI50 (COLO 205) was > 54.6 µM (inactive) and the GI50 (DU-145) was > 48.2 µM (inactive). For the same compound, the GI50 (EKVX) was > 76.7 µM (inactive), the GI50 (HCC 2998) was > 100 µM (inactive) and the GI50 (HCT-116) was 25.2 µM (inactive). The GI50 (HL-60) was 1.78 µM (inactive), the GI50 (HOP-62) was 14.1 µM (inactive) and the GI50 (HOP-92) was > 57.4 µM (inactive). The GI50 (HT-29) was > 29.8 µM (inactive), the GI50 (Hs-578T) was 44.5 µM (inactive) and the GI50 (IGROV-1) was > 57.7 µM (inactive). The GI50 (K562) was > 100 µM (inactive), the GI50 (KM12) was 20.7 µM (inactive) and the GI50 (LOX IMVI) was > 100 µM (inactive). The GI50 (M14) was 68.1 µM (inactive), the GI50 (MCF7) was > 42.4 µM (inactive) and the GI50 (MDA-MB-231) was > 40.4 µM (inactive). The GI50 (MDA-MB-435) was > 100 µM (inactive), the GI50 (MDA-N) was > 100 µM (inactive) and the GI50 (MOLT-4) was 3.61 µM (inactive). For the same compound, the GI50 (Malme-3M) was 76.7 µM (inactive), the GI50 (NCI-H226) was > 46.5 µM (inactive) and the GI50 (NCI-H23) was > 68.9 µM (inactive). For the same compound, the GI50 (NCI-H460) was 7.23 µM (inactive), the GI50 (NCI-H522) was 2.37 µM (inactive) and the GI50 (NCI/ADR-RES) was > 100 µM (inactive). The GI50 (OVCAR-3) was > 100 µM (inactive), the GI50 (OVCAR-4) was > 100 µM (inactive) and the GI50 (OVCAR-5) was > 100 µM (inactive). For the same compound, the GI50 (OVCAR-8) was 61.1 µM (inactive), the GI50 (PC-3) was > 100 µM (inactive) and the GI50 (RPMI-8226) was > 28.8 µM (inactive). For the same compound, the GI50 (RXF 393) was 82.4 µM (inactive), the GI50 (SF-268) was > 73.1 µM (inactive) and the GI50 (SF-295) was > 80.5 µM (inactive). For the same compound, the GI50 (SF-539) was > 55.2 µM (inactive), the GI50 (SK-MEL-28) was > 68.9 µM (inactive) and the GI50 (SK-MEL-2) was > 100 µM (inactive). For the same compound, the GI50 (SK-MEL-5) was 11.2 µM (inactive), the GI50 (SK-OV-3) was > 100 µM (inactive) and the GI50 (SN12C) was > 62.4 µM (inactive). For the same compound, the GI50 (SNB-19) was > 100 µM (inactive), the GI50 (SNB-75) was > 48.8 µM (inactive) and the GI50 (SR) was 5.14 µM (inactive). For the same compound, the GI50 (SW-620) was > 53.5 µM (inactive), the GI50 (T47D) was > 54.1 µM (inactive) and the GI50 (TK-10) was 61.8 µM (inactive). The GI50 (U-251) was > 61.8 µM (inactive), the GI50 (UACC-257) was > 100 µM (inactive) and the GI50 (UACC-62) was > 100 µM (inactive). The GI50 (UO-31) was > 19.7 µM (inactive).
